In paper PMC6838683, “Discovery of Human Signaling Systems: Pairing Peptides to G Protein-Coupled Receptors” (Cell, 2019):
Where two headings read alike, the source gives them in different places. Residues, ends and D or L forms follow the SMILES beside them.

Assays:
HA-OGR1 (GPR68) = target: T1, HA-OGR1 (GPR68) (Homo sapiens, UniProt Q15743); test: Ca2+ mobilization assay (Fluo-4); type: cell-based; settings: mean
T1 construct: HA; expressed in transfected cells
Protocol: Peptide-dependent Ca^2+ mobilization responses were measured in HEK293 stable cell lines (HA-OGR1 (GPR68) and vector pcDNA) ([Saxena et al., 2012]) that were seeded in 96-well plates (1 × 10^5 cells/well) and cultured at 37°C with 5% CO2 to near confluence in DMEM with 10% FBS (Corning). Six hours prior to assay, medium was changed to pH 8.0 or pH 7.4 HAM’s F12 Nutrient Mixture (GIBCO) without FBS and transferred to a 37°C incubator without CO2. One hour prior to stimulation, cells were incubated in pH 8.0 or pH 7.4 HBSS with Ca^2+ and Mg^2+ (GIBCO), supplemented with 15 mM HEPES, 2 μM Fluo-4 AM (Invitrogen) and 1.5 mM probenecid ([…] to prevent Fluo-4 efflux) as described previously ([Pera et al., 2018]). Indicated peptides were pipetted using an automated system and emission signal was recorded at 525 nm after excitation at 485 nm using Flex Station III (Molecular Devices). Ca^2+ mobilization responses were determined by subtracting basal fluorescence from the net peak of agonist-induced fluorescence. Ionomycin (1 μM) was used to calculate the maximum Ca^2+ signal to normalize peptide-mediated responses.

GPR68 = GPR68 (Homo sapiens, UniProt Q15743); test: Real-time receptor internalization (TR-FRET), concentration-response; type: cell-based; parameters: hIL-2Ra signal peptide (N); expressed in transfected cells; settings: GPR68; mean, SEM and n
Chain of GPR68 (Q15743 2-365 limits assumed): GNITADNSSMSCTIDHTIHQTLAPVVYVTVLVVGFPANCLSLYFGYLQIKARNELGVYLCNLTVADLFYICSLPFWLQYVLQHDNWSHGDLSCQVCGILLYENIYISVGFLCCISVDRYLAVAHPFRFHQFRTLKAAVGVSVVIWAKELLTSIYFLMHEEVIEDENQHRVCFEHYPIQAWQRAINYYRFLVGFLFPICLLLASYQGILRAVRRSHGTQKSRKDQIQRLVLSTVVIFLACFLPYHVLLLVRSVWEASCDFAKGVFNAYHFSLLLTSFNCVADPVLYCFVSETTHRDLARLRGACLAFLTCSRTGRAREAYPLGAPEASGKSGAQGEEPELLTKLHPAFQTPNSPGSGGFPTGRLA
Protocol: 48 hr prior to parallel assaying, SNAP-tagged oGPCR cells were plated (10,000 cells/well) in fibronectin-coated 384-well Epic biosensor microplates (Corning) and poly-D-lysine coated white 384-well plates (for internalization assays). SNAP- GLP-1 receptor was plated alongside orphan receptor cells as an internal assay control for internalization assays. Receptor-expression was induced with 0.1 μg/ml doxycycline.
A TR-FRET real-time internalization assay was used to examine peptide-dependent changes in orphan receptor localization as described previously ([Foster and Bräuner-Osborne, 2018]). Surface-expressed SNAP-tagged receptors were labeled with a cell-impermeable luminescent terbium cryptate (100 nM SNAP Lumi4-Tb; Cisbio, France) for 1 hr at 37°C. Cells were washed to remove excess terbium and incubated with fluorescein-O-acetic acid (100 μM; Sigma Aldrich) for 5 min at 37°C. Peptides were added as for DMR assays, and internalization responses were recorded for 60 min at 37°C using an EnVision 2104 Multimode plate reader (PerkinElmer). 100 nM GLP-1 was used as a positive control for SNAP-GLP1R internalization. Real-time internalization responses were calculated based on TR-FRET (excitation 340 nm; emission 520 nm and 615 nm), and were expressed as the ratio between donor (terbium) and acceptor (fluorescein) emission. For peptide screening analysis (both DMR and internalization assays), we calculated the area under the curve from the real-time traces. As the magnitude of the responses was variable between orphan receptor targets, particularly for the SNAP-tag based internalization assay where the signal is dependent on receptor surface expression, the AUC values were normalized to their respective plate averages and expressed as fold change. Validation experiments for receptor internalization were performed as above. Internalization data was processed in MS-Excel and area under the curve was used to generate concentration-response curves using GraphPad Prism 7.0. Data represent mean ± standard error of the mean (SEM) from at least 3 biologically independent experiments.

human GPCRs = test system: human GPCRs; parameters: method as in Guide to Pharmacology database; settings: max reported value, ref Guide to Pharmacology database, cited from earlier work
Source text: Supplement mmc1.xlsx, sheet "HumanGPCRLigands" | column: pKi_value; pKd_value; pEC50_value; pIC50_value

BB3 [1] = target: T2, BB3 (Homo sapiens, UniProt P32247); test: β-arrestin recruitment (Tango), validation; type: cell-based; settings: for EC50: HTLA cells transiently transfected, overnight stimulation, luciferase, mean ± SEM of 3-4 independent experiments in triplicate, read-out: pEC50, β-arrestin recruitment (Tango), BB3 (converted)
T2 construct: host or cells: HTLA cells (HEK293-derived)
T2 sequence (P32247 1-399): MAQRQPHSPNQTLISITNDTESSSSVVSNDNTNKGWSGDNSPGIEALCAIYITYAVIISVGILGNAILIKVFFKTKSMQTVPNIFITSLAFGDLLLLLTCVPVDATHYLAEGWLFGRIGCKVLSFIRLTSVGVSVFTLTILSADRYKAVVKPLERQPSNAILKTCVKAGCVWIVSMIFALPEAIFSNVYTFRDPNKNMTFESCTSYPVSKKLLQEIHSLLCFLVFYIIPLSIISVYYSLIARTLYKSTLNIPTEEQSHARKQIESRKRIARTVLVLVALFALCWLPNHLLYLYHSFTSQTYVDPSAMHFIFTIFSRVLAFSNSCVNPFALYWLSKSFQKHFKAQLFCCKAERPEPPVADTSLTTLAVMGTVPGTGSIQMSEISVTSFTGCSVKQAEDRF
Protocol: (§1) The peptide library was additionally screened against 120 GPCR targets in parallel, including all available orphan receptors and 27 known class A peptide receptors using the Tango assay platform ([Kroeze et al., 2015]). Briefly, HTLA cells (a HEK293 cell line stably expressing a tTA-dependent luciferase reporter and a β-arrestin2-TEV fusion gene) were plated 10,000 cells/well in poly-L-lysine–coated clear-bottom white 384-well plates in DMEM supplemented with 10% FBS, 100 U/ml penicillin and 100 μg/ml streptomycin, 2 μg/ml puromycin and 100 μg/ml hygromycin B. 24 hr later, cells were transfected with Tango GPCR constructs using the calcium phosphate method ([Jordan et al., 1996]). The next day, culture medium was changed to DMEM + 1% dFBS and 10 μM peptides were added for overnight stimulation. Bright-Glo solution (Promega) was incubated for 15–20 min at room temperature, and luminescence was counted using a Trilux luminescence counter (Wallac).
(§2) For subsequent peptide validation experiments using Tango assays, HTLA cells were transiently transfected in 10 cm dishes with the receptor of interest using polyethylenimine (PEI) ([Longo et al., 2013]). After 24 hr, 25,000 cells/well were plated in clear bottom, white-walled 384-well plates. Assays were performed as described above, with luminescence measured using an EnSpire 2300 Multimode plate reader (PerkinElmer). Luminescence counts were exported into Excel and were analyzed using GraphPad Prism 7.

BB3 [2] = target: T3, BB3 (Homo sapiens, UniProt P32247); test: Real-time receptor internalization (TR-FRET), concentration-response; type: cell-based; settings: BB3
T3 construct: hIL-2Ra signal peptide (N); expressed in transfected cells
T3 sequence (P32247 2-399 limits assumed): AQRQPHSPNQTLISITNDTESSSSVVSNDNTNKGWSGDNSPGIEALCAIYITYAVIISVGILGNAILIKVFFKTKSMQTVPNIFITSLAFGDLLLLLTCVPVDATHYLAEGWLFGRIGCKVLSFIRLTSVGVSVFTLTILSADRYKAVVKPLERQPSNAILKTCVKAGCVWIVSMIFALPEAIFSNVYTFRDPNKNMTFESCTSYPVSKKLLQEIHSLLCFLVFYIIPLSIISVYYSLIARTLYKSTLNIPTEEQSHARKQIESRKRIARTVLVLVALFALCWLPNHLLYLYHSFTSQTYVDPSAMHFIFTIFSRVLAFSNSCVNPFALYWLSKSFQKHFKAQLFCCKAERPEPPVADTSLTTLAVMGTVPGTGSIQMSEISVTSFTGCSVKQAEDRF

BB3 [3] = target: T3, BB3; test: Dynamic mass redistribution (DMR), concentration-response; type: cell-based
BB3 [4] = target: T3, BB3; test: IP1 accumulation (Gq/11), HTRF; type: cell-based
[5] = test system: 120 GPCR targets, including all available orphan receptors and 27 known class A peptide receptors; test: Peptide library screen, β-arrestin recruitment (Tango, fold change, 10 μM); type: cell-based, human
Protocol: as §1

NPY5 = target: T4, NPY5 (Homo sapiens, UniProt Q15761); test: β-arrestin recruitment (Tango), known peptide receptors; type: cell-based; settings: NPY5R; mean, n = 3
T4 construct: host or cells: HTLA cells (HEK293-derived)
T4 sequence (Q15761 1-445): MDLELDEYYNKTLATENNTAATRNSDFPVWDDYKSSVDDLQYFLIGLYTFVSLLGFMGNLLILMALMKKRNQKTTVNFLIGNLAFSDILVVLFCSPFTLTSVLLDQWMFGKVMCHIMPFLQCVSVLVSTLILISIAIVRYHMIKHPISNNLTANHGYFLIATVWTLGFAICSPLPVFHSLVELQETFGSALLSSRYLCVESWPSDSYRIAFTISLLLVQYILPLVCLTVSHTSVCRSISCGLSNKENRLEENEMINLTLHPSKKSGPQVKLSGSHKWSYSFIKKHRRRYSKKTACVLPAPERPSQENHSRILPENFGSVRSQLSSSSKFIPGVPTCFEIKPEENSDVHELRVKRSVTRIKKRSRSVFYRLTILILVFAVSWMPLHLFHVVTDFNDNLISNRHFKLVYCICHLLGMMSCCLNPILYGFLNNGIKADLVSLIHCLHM
Protocol: as §1, §2

[6] = receptor grpr_human (GRPR, P30550)

T1 sequence (Q15743 whole entry): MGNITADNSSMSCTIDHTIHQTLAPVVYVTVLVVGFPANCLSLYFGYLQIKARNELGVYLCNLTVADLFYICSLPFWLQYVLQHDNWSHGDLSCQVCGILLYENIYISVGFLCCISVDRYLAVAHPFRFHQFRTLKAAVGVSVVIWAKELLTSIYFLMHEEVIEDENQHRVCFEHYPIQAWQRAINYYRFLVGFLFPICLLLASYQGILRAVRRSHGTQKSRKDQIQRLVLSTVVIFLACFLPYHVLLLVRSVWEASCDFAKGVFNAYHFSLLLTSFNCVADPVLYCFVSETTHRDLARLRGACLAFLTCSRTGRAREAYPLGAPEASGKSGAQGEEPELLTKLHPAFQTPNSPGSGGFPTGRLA

With `CC[C@H](C)[C@H](NC(=O)[C@H](CCCNC(=N)N)NC(=O)[C@H](CC(=O)O)NC(=O)[C@H](CCSC)NC(=O)[C@@H]1CCCN1C(=O)[C@@H](NC(=O)CNC(=O)[C@H](Cc1ccccc1)NC(=O)[C@@H](N)CCCNC(=N)N)[C@@H](C)CC)C(=O)NCC(=O)N[C@@H](CCCNC(=N)N)C(=O)N[C@@H](CC(N)=O)C(=O)N[C@@H](CCCNC(=N)N)C(=O)N[C@@H](CC(C)C)C(=O)N[C@@H](CO)C(=O)N[C@@H](CC(N)=O)C(=O)N[C@@H](CO)C(=O)N[C@@H](CCCNC(=N)N)C(=O)NCC(=O)O` [128 resynthesized] (H-RFGIPMDRIGRNRLSNSRG-OH) the Emax (HA-OGR1 (GPR68); receptor GPR68, SEM and n (3), read-out: Calcium mobilization assays Emax (% ionomycin)) was 34.5%.
For `CC[C@H](C)[C@H](NC(=O)[C@H](CCCNC(=N)N)NC(=O)[C@H](CC(=O)O)NC(=O)[C@H](CCSC)NC(=O)[C@@H]1CCCN1C(=O)[C@@H](NC(=O)CNC(=O)[C@H](Cc1ccccc1)NC(=O)[C@@H](N)CCCNC(=N)N)[C@@H](C)CC)C(=O)NCC(=O)N[C@@H](CCCNC(=N)N)C(=O)N[C@@H](CC(N)=O)C(=O)N[C@@H](CCCNC(=N)N)C(=O)N[C@@H](CC(C)C)C(=O)N[C@@H](CO)C(=O)N[C@@H](CC(N)=O)C(=O)N[C@@H](CO)C(=O)N[C@@H](CCCNC(=N)N)C(=O)NCC(=O)O` [Osteocrin_(33-50)] (H-RFGIPMDRIGRNRLSNSRG-OH), the “pEC50, Internalization (AUC)” value (GPR68) was “Response >1uM” and the Emax (HA-OGR1 (GPR68); GPR68, data from resynthesized peptide, SEM and n, read-out: Emax, Ca2+ mobilization (% iono)) was 34.5%.
In the case of `CSCC[C@H](NC(=O)[C@H](Cc1ccccc1)NC(=O)[C@H](Cc1c[nH]cn1)NC(=O)CNC(=O)[C@@H](NC(=O)[C@H](C)NC(=O)[C@H](Cc1c[nH]c2ccccc12)NC(=O)[C@H](CC(C)C)NC(=O)[C@H](CC(N)=O)NC(=O)CN)[C@@H](C)O)C(N)=O` [Peptide 59, Neuromedin B, reference compound], the pIC50_value (human GPCRs; [6]) is given as 7.5, the pKi_value (human GPCRs; [6]) is given as 8.1 and the pKi_value (human GPCRs; receptor nmbr_human (NMBR, P28336)) is given as 10.3. The “Emax, Tango (fold over basal)” value (BB3 [1]; BB3, mean, SEM and n) was 5.0 fold over basal, the “pEC50, Tango (fold over basal)” value (BB3 [1]; BB3, mean, SEM and n) was 5.67 and the EC50 (BB3 [1]) was 2000 nM. For the same compound, the “Emax, Internalization (AUC)” value (BB3 [2]; mean, SEM and n) was 26.4, the EC50 (BB3 [2]; mean, SEM and n, read-out: pEC50, Internalization (AUC) (converted)) was 1950 nM and the EC50 (BB3 [3]) was 37.2 nM. The “Emax, DMR (peak)” value (BB3 [3]; BB3, mean, SEM and n) was 183.2, the “Emax, IP1” value (BB3 [4]; BB3, mean, SEM and n) was 81.0 nM and the EC50 (BB3 [4]; pEC50, IP1 accumulation (Gq/11), BB3, HTRF IP-One, 30 min, 37°C, mean ± SEM of 3-4 independent experiments in triplicate, peptide 158 n = 2) was 407 nM.
For `CSCC[C@H](NC(=O)[C@H](CC(C)C)NC(=O)[C@H](Cc1c[nH]cn1)NC(=O)CNC(=O)[C@@H](NC(=O)[C@H](C)NC(=O)[C@H](Cc1c[nH]c2ccccc12)NC(=O)[C@H](Cc1c[nH]cn1)NC(=O)[C@H](CC(N)=O)NC(=O)CNC(=O)[C@H](CCCNC(=N)N)NC(=O)[C@@H]1CCCN1C(=O)[C@H](Cc1ccc(O)cc1)NC(=O)[C@H](CCSC)NC(=O)[C@H](CCCCN)NC(=O)[C@@H](NC(=O)[C@H](CC(C)C)NC(=O)[C@@H](NC(=O)[C@@H](NC(=O)CNC(=O)CNC(=O)CNC(=O)[C@H](C)NC(=O)[C@@H]1CCCN1C(=O)[C@H](CC(C)C)NC(=O)[C@@H]1CCCN1C(=O)[C@@H](N)C(C)C)[C@@H](C)O)C(C)C)[C@@H](C)O)C(C)C)C(N)=O` [Peptide 167, gastrin-releasing peptide, reference compound], the pIC50_value (human GPCRs; [6]) is given as 10, the pKi_value (human GPCRs; [6]) is given as 8.2 and the EC50 (BB3 [1]) is given as greater than 10000 nM. It also gave an EC50 (BB3 [2]; pEC50, internalization) greater than 10000 nM.
With “SRTHRHSMEIRTPDINPAWYASRGIRPVGRF [Peptide 183]” the “Active at: (activity in b-arrestin recruitment assays)” value ([5]; Tango, receptor(s) at which the known library peptide was active, among its known GPCR target(s), validated pairings) was “PrRP”, the “Confirmation of known target in Tango” value ([5]; repeat hitters of the peptide library screen, the value names the known receptor(s) confirmed in the β-arrestin recruitment (Tango) screen) was “PrRP” and the “Emax, Tango (fold over basal)” value (NPY5) was 6.6 fold over basal. For the same compound, the “pEC50, Tango (fold over basal)” value (NPY5) was 5.60.
